Test results: patent US12559490B2, “Compositions and methods for modulating hair growth” (The Regents of the University of California, priority 2020, dated 2026)

Tests used:
[1] = target: T1, Mitochondrial Pyruvate Carrier (MPC) (Homo sapiens, UniProt O95563+Q9Y5U8); assay: Pyruvate-driven respiration (OCR, XF96) in permeabilized HepG2 cells to test MPC; type: cell-based; details: pyruvate/malate substrate, nine-point dose-response, 1 or 3 replicates
T1 sequence (Q9Y5U8 1-109): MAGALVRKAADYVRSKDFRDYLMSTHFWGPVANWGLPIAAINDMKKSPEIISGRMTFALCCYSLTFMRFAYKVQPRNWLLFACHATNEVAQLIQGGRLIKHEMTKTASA
T1 sequence (O95563 1-127): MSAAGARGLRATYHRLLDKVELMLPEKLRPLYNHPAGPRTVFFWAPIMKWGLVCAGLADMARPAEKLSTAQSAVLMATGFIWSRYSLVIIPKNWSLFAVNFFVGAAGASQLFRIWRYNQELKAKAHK

[2] = Solubility testing in a polyethylene glycol/transcutol/ethanol/DMSO formulation; type: physicochemical; details: for Conc.: concentration tested in formulation of about 25-75% polyethylene glycol, 5-20% transcutol, 5-50% ethanol, 5-10% DMSO, room temperature, Notes column says whether it dissolved; for Notes (dissolved / failed to dissolve): stirred 1 hour, overnight or 24 hours at room temperature
Text: Results are detailed in the table below.

Row | SMILES | IC50 [1] [µM] | Conc. [2] [% w/w] | Notes (dissolved / failed to dissolve) [2]
1 | N#C/C(=C\c1cn(Cc2ccccc2C(F)(F)F)c2ncccc12)C(=O)O [PP26, (E)-2-Cyano-3-(1-(2-(trifluoromethyl)benzyl)-1H-pyrrolo[2,3-b]pyridin-3-yl) acrylic acid] | 0.054 | 0.1 | Stirred 1 hour at room temperature; dissolved
2 | N#C/C(=C\c1cn(Cc2ccccn2)c2ncccc12)C(=O)O [PP38, Sodium (E)-2-cyano-3-(1-(pyridin-2-ylmethyl)-1H-pyrrolo[2,3-b]pyridin-3-yl)acrylate] | 0.183 |  | 
3 | N#C/C(=C\c1cn(Cc2cccnc2)c2ncccc12)C(=O)O [PP39, Sodium (E)-2-cyano-3-(1-(pyridin-3-ylmethyl)-1H-pyrrolo[2,3-b]pyridin-3-yl)acrylate] | 0.262 |  | 
4 | N#C/C(=C\c1cn(Cc2cc(C(F)(F)F)cc(C(F)(F)F)c2)c2ncccc12)C(=O)O [JXL069, reference compound] | 0.0512 | 0.027 | Stirred overnight at room temperature; dissolved
5 | N#C/C(=C\c1cn(Cc2cccc(C(F)(F)F)c2)c2ncccc12)C(=O)O [PP27, (E)-2-Cyano-3-(1-(3-(trifluoromethyl)benzyl)-1H-pyrrolo[2,3-b]pyridin-3-yl) acrylic acid] | 0.0363 | 0.15 | Stirred 1 hour at room temperature; dissolved

Continued, in another order:

Row | IC50 [1] [µM] | Conc. [2] [% w/w] | SMILES | Notes (dissolved / failed to dissolve) [2]
6 | 0.026 | 0.1 | N#C/C(=C\c1cn(Cc2cccc(F)c2)c2ncccc12)C(=O)O [PP36, (E)-2-cyano-3-(1-(3-fluorobenzyl)-1H-pyrrolo[2,3-b]pyridin-3-yl)acrylic acid] | 
7 | 0.411 |  | N#C/C(=C\c1cn(Cc2ccncc2)c2ncccc12)C(=O)O [PP40, Sodium (E)-2-cyano-3-(1-(pyridin-4-ylmethyl)-1H-pyrrolo[2,3-b]pyridin-3-yl)acrylate] | 
8 | 0.109 |  | N#C/C(=C\c1cn(Cc2ccc(F)cc2)c2ncccc12)C(=O)O [PP37, (E)-2-cyano-3-(1-(4-fluorobenzyl)-1H-pyrrolo[2,3-b]pyridin-3-yl)acrylic acid] | 
9 | 0.034 | 0.1 | N#C/C(=C\c1cn(Cc2ccccc2F)c2ncccc12)C(=O)O [PP35, (E)-2-cyano-3-(1-(2-fluorobenzyl)-1H-pyrrolo[2,3-b]pyridin-3-yl)acrylic acid] | 
